According to patent publication US20170029388A1, “Treatment of Neurodegenerative Diseases with Asparagine Endopeptidase (AEP) Inhibitors and Compositions Related Thereto” (INTERCONTINENTAL GREAT BRANDS LLC, priority 2014, published 2017):

Legend:
[1] = test system: Caco-2 monolayer; assay: Caco-2 monolayer permeability screen; assay type: in vitro ADME; conditions: for A -> B Papp / B -> A Papp / RE: Caco-2
Procedure: To explore the in vitro ADME profiles of the compounds, additional tests were conducted.

[2] = molecular target: CYP2C9 (Homo sapiens, UniProt P11712); assay: CYP inhibition screening, CYP2C9; assay type: in vitro ADME
CYP2C9, sequence (P11712 whole entry): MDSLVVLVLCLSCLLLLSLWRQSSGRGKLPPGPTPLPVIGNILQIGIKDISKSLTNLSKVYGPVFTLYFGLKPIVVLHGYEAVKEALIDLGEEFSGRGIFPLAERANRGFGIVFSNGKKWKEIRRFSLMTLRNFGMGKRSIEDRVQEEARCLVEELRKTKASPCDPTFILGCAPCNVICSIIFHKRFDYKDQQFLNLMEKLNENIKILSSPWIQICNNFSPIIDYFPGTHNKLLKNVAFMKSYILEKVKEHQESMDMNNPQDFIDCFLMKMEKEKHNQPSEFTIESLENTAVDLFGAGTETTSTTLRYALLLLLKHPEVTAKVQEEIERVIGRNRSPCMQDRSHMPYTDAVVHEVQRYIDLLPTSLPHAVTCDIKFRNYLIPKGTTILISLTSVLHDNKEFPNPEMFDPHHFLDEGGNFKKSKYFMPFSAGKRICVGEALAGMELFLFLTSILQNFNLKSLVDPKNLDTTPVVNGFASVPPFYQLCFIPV

[3] = PAMPA
[4] = molecular target: T1, AEP (Homo sapiens, UniProt Q99538); assay: Enzyme inhibition assays (steady-state kinetics, Z-AAN-AMC); assay type: biochemical; conditions: for mode of inhibition: Michaelis-Menten plots; for inhibition constant KI: competitive inhibition fit
T1 construct: tested with purified active AEP, IC50 values for the top 8 candidates were found; purchased Sino Biological
T1 sequence (Q99538 18-323 limits assumed): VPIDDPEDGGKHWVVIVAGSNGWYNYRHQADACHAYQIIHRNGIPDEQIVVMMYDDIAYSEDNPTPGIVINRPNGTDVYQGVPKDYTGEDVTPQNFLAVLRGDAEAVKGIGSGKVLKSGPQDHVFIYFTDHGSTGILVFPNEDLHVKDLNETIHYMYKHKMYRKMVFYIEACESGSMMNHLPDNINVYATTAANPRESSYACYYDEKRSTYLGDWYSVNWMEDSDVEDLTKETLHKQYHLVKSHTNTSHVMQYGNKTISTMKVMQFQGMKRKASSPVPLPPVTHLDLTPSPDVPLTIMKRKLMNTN
Procedure: KI values for each inhibitor were determined by global fits to the competitive inhibition equation. C. Time course inactivation assays were used to generate progress curves, depicting product formation as a function of time. […] E. Time course inactivation assays were used to generate progress curves, depicting product formation as a function of time. Pseudo first-order rate constants were obtained at each concentration of compound BB1. F. Re-plot of the pseudo first-order rate constants, kobs, vs. the concentration of compound BB1.
To continue to assess the mechanism utilized by the compounds to inhibit AEP, the inhibition kinetics were determined for compound, 11, as well as compound BB1, in an attempt to confirm that the thiol moiety is competitively inhibiting the enzyme. […] The resulting Michaelis-Menten plots for each compound seem be indicative of competitive inhibition. […] Since BB1 contains a thiol group, it can form a disulfide bond with the active-site cysteine of AEP. […] Additionally, plotting the pseudo-first-order rate constants of inhibition, kobs, which were determined from the progress curves, yielded a hyperbolic curve, consistent with a two-step mechanism of inactivation (FIG. 6D). […] However, the kobs versus inhibitor concentration plot yielded a straight line, maybe due to the rapid disulfide formation reaction (FIG. 6F).
To determine the inhibition constants and the mechanism by which compounds BB1, 11 and 38 inhibit AEP, the steady-state kinetic parameters for the hydrolysis of the peptide substrate, Z-AAN-AMC, was determined in the absence or presence of increasing concentrations of inhibitor. In these assays, specified concentrations of the inhibitor were pre-incubated with substrate for 10 min at 37° C., then 50 nM AEP was added to initiate the reaction, which was quenched after 10 min. The RFU values of the reaction product were converted to micromolar values with an AMC standard curve and the final reaction rates were plotted against substrate concentration and globally fit to equations representative of competitive inhibition (eq 1), noncompetitive inhibition (eq 2), mixed inhibition (eq 3) and uncompetitive inhibition (eq 4) using a nonlinear least fit squares approach by GraFit version 5.0.11. […]
ν=Vmax[S]/([S]+Km(1+[1]/Kis)) (eq 1), ν=Vmax[S]/([S](1+[1]/Kl)+Km(1+[1]/Ki)) (eq 2), ν=Vmax[S]/([S](1+[1]/Kii)+Km([…])) (eq 3), ν=Vmax[S]/([S](1+[1]/Kii)+Km) (eq 4).
In the equations, Kii is the intercept Ki, and Kis is the slope Ki. The mode of the inhibition induced by the compounds on AEP was determined by the best fit of the data to equations 1 -4. Visual inspection of the fits, and a comparison of the standard errors, was used to confirm these assignments.

[5] = molecular target: T1, AEP; assay: DTT reversibility assay; assay type: biochemical; conditions: 5x IC50 of compound, 10 mM DTT or L-cysteine
Procedure: AEP was reacted with specified inhibitor, after 15 min 10 mM DTT or L-cysteine was added to the reaction and the fluorescent signal was read for an additional 15 min. At the end of the second 15 min incubation, the percentage of product formed in the presence of each compound was determined in comparison to the DMSO control reaction.
Although it is not intended that embodiments of this disclosure be limited by any particular mechanism, to gain additional insight into the mechanism utilized by the inhibitors for abrogation of AEP activity, their reversibility in the presence of free thiols was determined. The addition of a strong reducing agent, such as DTT, or a weaker reducing agent, L-cysteine, to an inhibited reaction can be used to out-compete the inhibitory agent and restore catalytic activity to an enzyme with an active-site thiol residue. Here, a similar approach was used by adding a reducing agent, either DTT or L-cysteine, to a reaction, in which AEP had been incubated with a specified inhibitor, in an attempt to reverse the effects of the inhibitor. […] For compounds BB1 and 38, this increase in enzymatic activity may be due to the reduction of a disulfide linkage between the inhibitor and the enzyme, since these compounds contain thiols. Compound 10 contains a thiocyanate and may undergo nucleophilic attack by the enzyme's active-site thiolate to form a thioimidate enzyme-inhibitor complex. Under acidic conditions, this complex is reducible by either a strong reducing agent, such as DTT, or the weaker L-cysteine.
Simultaneously, 10 mM (final concentration) dithiothreitol (DTT) or L-cysteine was added to each reaction and incubated for an additional 15 min. At the end of the second 15 min incubation time, the fluorescence was measured for each sample. The amount of product formed in the presence of DMSO was used to determine the percentage of AEP activity in the presence of each drug.

| SMILES | Caco-2 permeability (in words) [1] | A -> B Papp [1] | B -> A Papp [1] | RE [1] | CYP inhibition, CYP2C9 ([2]; test concentration 3 μM) | CYP inhibition, CYP2C9 ([2]; test concentration 10 μM) | Pe [3] | blood-brain barrier permeability (in words) [3] | mode of inhibition [4] | inhibition constant KI [4] | AEP activity after addition of reducing agent (reversibility) [5] |
| --- | --- | --- | --- | --- | --- | --- | --- | --- | --- | --- | --- |
| Nc1ccc(N2CCOCC2)c2nonc12 [Compound 11] | highly permeable | 35.0 10^−6 cm · s^−1 | 7.0 10^−6 cm · s^−1 | 0.2 | 4.3% | 5.6% | >25 10^−6 cm · s^−1 | able to cross the blood-brain barrier | competitive inhibitors | nanomolar-range | – |
| Cn1c(=O)[nH]c(=O)c2c1nc(S)n2CC(O)COc1ccc(Cl)cc1 (centres unmarked) [Compound 38] | – | 1.1 10^−6 cm · s^−1 | 20.3 10^−6 cm · s^−1 | 18.2 | 15.6% | 17.1% | 0.007 10^−6 cm · s^−1 | – | – | – | regained a substantial amount of activity |
| Sc1nnc(Nc2ccccc2)s1 [Compound BB1] | – | – | – | – | – | – | – | – | competitive inhibitors | nanomolar-range | regained a substantial amount of activity |
